Source: PubChem BioAssay (NCI)
Values joined by “and” are separate entries in the source; they are usually repeats but may differ in a detail not shown here. Equal values may be shown once.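 Compound exposure: 48 hours, 5 concentrations, 96-well plates. GI50: concentration for 50% inhibition of growth. TGI denotes the concentration required for complete inhibition of growth.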

Key:
Experiment in all cases: NCI tumour cell line growth inhibition, 48 h; in the data active = GI50 below about 0.43 µM; inactive = the rest
LXFL 529 NSCLC = test system: LXFL 529 NSCLC
CCRF-CEM leukemia = test system: CCRF-CEM leukemia
EKVX NSCLC = test system: EKVX NSCLC
KM20L2 colon = test system: KM20L2 colon
ACHN renal = test system: ACHN renal
OVCAR-8 ovarian = test system: OVCAR-8 ovarian
RPMI-8226 leukemia = test system: RPMI-8226 leukemia
SK-OV-3 ovarian = test system: SK-OV-3 ovarian
NCI-H23 lung = test system: NCI-H23 lung
UACC-257 melanoma = test system: UACC-257 melanoma
SK-MEL-2 melanoma = test system: SK-MEL-2 melanoma
DLD-1 colon = test system: DLD-1 colon
K-562 leukemia = test system: K-562 leukemia
SN12C renal = test system: SN12C renal
IGROV1 ovarian = test system: IGROV1 ovarian
OVCAR-4 ovarian = test system: OVCAR-4 ovarian
SNB-75 CNS = test system: SNB-75 CNS
HCT-15 colon = test system: HCT-15 colon
TK-10 renal = test system: TK-10 renal
NCI-H460 lung = test system: NCI-H460 lung
786-0 renal = test system: 786-0 renal
CAKI-1 renal = test system: CAKI-1 renal
NCI-H226 lung = test system: NCI-H226 lung
M14 melanoma = test system: M14 melanoma
COLO 205 colon = test system: COLO 205 colon
SNB-19 CNS = test system: SNB-19 CNS
HL-60(TB) leukemia = test system: HL-60(TB) leukemia
UO-31 renal = test system: UO-31 renal
SF-295 CNS = test system: SF-295 CNS
NCI-H522 lung = test system: NCI-H522 lung
HOP-18 NSCLC = test system: HOP-18 NSCLC
SW-620 colon = test system: SW-620 colon
OVCAR-3 ovarian = test system: OVCAR-3 ovarian
MOLT-4 leukemia = test system: MOLT-4 leukemia
U251 CNS = test system: U251 CNS
MALME-3M melanoma = test system: MALME-3M melanoma
HOP-62 NSCLC = test system: HOP-62 NSCLC
KM12 colon = test system: KM12 colon
XF 498 CNS = test system: XF 498 CNS
HCT-116 colon = test system: HCT-116 colon
RXF-631 renal = test system: RXF-631 renal
UACC-62 melanoma = test system: UACC-62 melanoma
RXF 393 renal = test system: RXF 393 renal
LOX IMVI melanoma = test system: LOX IMVI melanoma
A498 renal = test system: A498 renal
M19-MEL melanoma = test system: M19-MEL melanoma
SF-268 CNS = test system: SF-268 CNS
A549 NSCLC = test system: A549 NSCLC
HT29 colon = test system: HT29 colon
HCC-2998 colon = test system: HCC-2998 colon
SF-539 CNS = test system: SF-539 CNS
SK-MEL-28 melanoma = test system: SK-MEL-28 melanoma
SK-MEL-5 melanoma = test system: SK-MEL-5 melanoma
SNB-78 CNS = test system: SNB-78 CNS
DMS 273 small cell lung = test system: DMS 273 small cell lung
OVCAR-5 ovarian = test system: OVCAR-5 ovarian
DMS 114 small cell lung = test system: DMS 114 small cell lung
SR leukemia = test system: SR leukemia
HOP-92 NSCLC = test system: HOP-92 NSCLC

CCOP1(=O)C=C(C)C(=C(Cl)Cl)C(C)=C1 (configuration not stated)
36.9 µM: TGI (HCT-15 colon)
68.1 µM: TGI (ACHN renal)
36.3 µM: TGI (M19-MEL melanoma)
58.8 µM: TGI (A549 NSCLC)
38 µM: TGI (NCI-H23 lung)
30.7 µM: TGI (SW-620 colon) | TGI (RXF 393 renal)
46.9 µM: TGI (HOP-18 NSCLC)
47.3 µM: TGI (MALME-3M melanoma)
84.1 µM: TGI (HT29 colon)
10.9 µM: TGI (HL-60(TB) leukemia)
39.8 µM: TGI (SF-295 CNS)
21.2 µM: TGI (NCI-H226 lung)
28.4 µM: TGI (RPMI-8226 leukemia)
64.2 µM: TGI (OVCAR-3 ovarian)
35.7 µM: TGI (XF 498 CNS)
42.9 µM: TGI (MOLT-4 leukemia)
50.3 µM: TGI (SNB-19 CNS)
24.1 µM: TGI (LXFL 529 NSCLC)
49.3 µM: TGI (CAKI-1 renal)
inactive: GI50 (LXFL 529 NSCLC) 5.53 µM | GI50 (KM20L2 colon) 4.53 µM | GI50 (UACC-257 melanoma) 11.5 µM | GI50 (SNB-75 CNS) 30 µM | GI50 (NCI-H226 lung) 3.44 µM | GI50 (M14 melanoma) 10.7 µM | GI50 (NCI-H522 lung) 5.57 µM | GI50 (HCT-116 colon) 3.33 µM | GI50 (RXF-631 renal) 20.4 µM | GI50 (UACC-62 melanoma) 9.31 µM | GI50 (LOX IMVI melanoma) 22.8 µM | GI50 (M19-MEL melanoma) 12.9 µM | GI50 (SF-268 CNS) 15.8 µM | GI50 (HT29 colon) 6.6 µM
6.76 µM and 65.3 µM: TGI (KM20L2 colon)
64.5 µM: TGI (RXF-631 renal)
66.7 µM: TGI (SF-539 CNS)
68.6 µM: TGI (CCRF-CEM leukemia)
56.2 µM: TGI (SK-MEL-2 melanoma)
> 100 µM: TGI (OVCAR-8 ovarian) | TGI (SK-OV-3 ovarian) | TGI (SN12C renal) | TGI (SNB-75 CNS) | TGI (NCI-H460 lung) | TGI (786-0 renal) | TGI (LOX IMVI melanoma) | TGI (SF-268 CNS) | TGI (SK-MEL-28 melanoma)
7.79 µM and 18.9 µM: TGI (NCI-H522 lung)
52.9 µM: TGI (UO-31 renal)
40.6 µM: TGI (HOP-62 NSCLC)
5.11 µM: TGI (KM12 colon)
50.9 µM: TGI (U251 CNS)
31.4 µM: TGI (HCC-2998 colon)
90.9 µM: TGI (IGROV1 ovarian)
89 µM: TGI (UACC-257 melanoma)
7.13 µM and 13.3 µM: TGI (HCT-116 colon)
77.2 µM: TGI (TK-10 renal)
78.5 µM: TGI (DLD-1 colon)
29.1 µM: TGI (OVCAR-4 ovarian)
38.3 µM: TGI (EKVX NSCLC)
24.6 µM: TGI (M14 melanoma)
76.3 µM: TGI (A498 renal)
29 µM: TGI (COLO 205 colon)
16.3 µM: TGI (K-562 leukemia)
23.6 µM: TGI (UACC-62 melanoma)

C/C(=N\NC(=O)CC(=O)N(C(=O)c1ccc(Cl)cc1)c1ccc(C)cc1)c1ccccc1O
> 100 µM: TGI (LXFL 529 NSCLC) | TGI (CCRF-CEM leukemia) | TGI (EKVX NSCLC) | TGI (KM20L2 colon) | TGI (ACHN renal) | TGI (OVCAR-8 ovarian) | TGI (RPMI-8226 leukemia) | TGI (SK-OV-3 ovarian) | TGI (NCI-H23 lung) | TGI (UACC-257 melanoma) | TGI (SK-MEL-2 melanoma) | TGI (DLD-1 colon) | TGI (K-562 leukemia) | TGI (SN12C renal) | TGI (SK-MEL-5 melanoma) | TGI (IGROV1 ovarian) | TGI (HCT-15 colon) | TGI (TK-10 renal) | TGI (NCI-H460 lung) | TGI (786-0 renal) | TGI (CAKI-1 renal) | TGI (NCI-H226 lung) | TGI (M14 melanoma) | TGI (COLO 205 colon) | TGI (SNB-78 CNS) | TGI (SNB-19 CNS) | TGI (UO-31 renal) | TGI (SF-295 CNS) | TGI (NCI-H522 lung) | TGI (SW-620 colon) | TGI (OVCAR-3 ovarian) | TGI (MOLT-4 leukemia) | TGI (DMS 273 small cell lung) | TGI (OVCAR-5 ovarian) | TGI (U251 CNS) | TGI (MALME-3M melanoma) | TGI (HOP-62 NSCLC) | TGI (KM12 colon) | TGI (XF 498 CNS) | TGI (HCT-116 colon) | TGI (DMS 114 small cell lung) | TGI (RXF-631 renal) | TGI (UACC-62 melanoma) | TGI (RXF 393 renal) | TGI (A498 renal) | TGI (M19-MEL melanoma) | TGI (SF-268 CNS) | TGI (A549 NSCLC) | TGI (HT29 colon) | TGI (SF-539 CNS) | TGI (SK-MEL-28 melanoma)
43.9 µM: TGI (SNB-75 CNS)
13.7 µM: TGI (OVCAR-4 ovarian)

COC(=O)C(/C(=N\NC(N)=S)C(=O)Nc1ccccc1[N+](=O)[O-])c1cnc2ccccc2n1 (configuration not stated)
> 100 µM: TGI (LXFL 529 NSCLC) | TGI (CCRF-CEM leukemia) | TGI (EKVX NSCLC) | TGI (KM20L2 colon) | TGI (ACHN renal) | TGI (OVCAR-8 ovarian) | TGI (RPMI-8226 leukemia) | TGI (SK-OV-3 ovarian) | TGI (NCI-H23 lung) | TGI (UACC-257 melanoma) | TGI (SK-MEL-2 melanoma) | TGI (DLD-1 colon) | TGI (K-562 leukemia) | TGI (SN12C renal) | TGI (SK-MEL-5 melanoma) | TGI (IGROV1 ovarian) | TGI (OVCAR-4 ovarian) | TGI (SNB-75 CNS) | TGI (SR leukemia) | TGI (HCT-15 colon) | TGI (TK-10 renal) | TGI (NCI-H460 lung) | TGI (786-0 renal) | TGI (CAKI-1 renal) | TGI (NCI-H226 lung) | TGI (HOP-92 NSCLC) | TGI (M14 melanoma) | TGI (COLO 205 colon) | TGI (SNB-78 CNS) | TGI (SNB-19 CNS) | TGI (HL-60(TB) leukemia) | TGI (UO-31 renal) | TGI (SF-295 CNS) | TGI (NCI-H522 lung) | TGI (HOP-18 NSCLC) | TGI (SW-620 colon) | TGI (MOLT-4 leukemia) | TGI (DMS 273 small cell lung) | TGI (OVCAR-5 ovarian) | TGI (U251 CNS) | TGI (MALME-3M melanoma) | TGI (HOP-62 NSCLC) | TGI (KM12 colon) | TGI (XF 498 CNS) | TGI (HCT-116 colon) | TGI (DMS 114 small cell lung) | TGI (RXF-631 renal) | TGI (UACC-62 melanoma) | TGI (RXF 393 renal) | TGI (LOX IMVI melanoma) | TGI (A498 renal) | TGI (M19-MEL melanoma) | TGI (SF-268 CNS) | TGI (A549 NSCLC) | TGI (HT29 colon) | TGI (HCC-2998 colon) | TGI (SF-539 CNS) | TGI (SK-MEL-28 melanoma)
